From ChEMBL document CHEMBL6109121, “Discovery of Novel Sulfonylurea NLRP3 Inflammasome Inhibitor for the Treatment of Multiple Inflammatory Diseases” (J Med Chem, 2025)
Calls of active or inactive are those of the source. The rule behind the calls is not given here.

What was measured:
[1] = biological target: Nlrp3/Pycard (Mus musculus) (UniProt Q8R4B8+Q9EPB4); experiment: In vivo inhibition of NLRP3-ASC protein-protein interaction in HFD-fed STZ-induced diabetic kidney disease male C57BL/6J mouse model at 20 mg/kg fed with high fat diet for 4 weeks followed by STZ administration for 5 days and measured 6 weeks post compound administration via gavage by co-immunoprecipitation based Western blot analysis; assay type: functional, organism-based
Chain of Nlrp3/Pycard (Mus musculus) (Q8R4B8 whole entry, looked up): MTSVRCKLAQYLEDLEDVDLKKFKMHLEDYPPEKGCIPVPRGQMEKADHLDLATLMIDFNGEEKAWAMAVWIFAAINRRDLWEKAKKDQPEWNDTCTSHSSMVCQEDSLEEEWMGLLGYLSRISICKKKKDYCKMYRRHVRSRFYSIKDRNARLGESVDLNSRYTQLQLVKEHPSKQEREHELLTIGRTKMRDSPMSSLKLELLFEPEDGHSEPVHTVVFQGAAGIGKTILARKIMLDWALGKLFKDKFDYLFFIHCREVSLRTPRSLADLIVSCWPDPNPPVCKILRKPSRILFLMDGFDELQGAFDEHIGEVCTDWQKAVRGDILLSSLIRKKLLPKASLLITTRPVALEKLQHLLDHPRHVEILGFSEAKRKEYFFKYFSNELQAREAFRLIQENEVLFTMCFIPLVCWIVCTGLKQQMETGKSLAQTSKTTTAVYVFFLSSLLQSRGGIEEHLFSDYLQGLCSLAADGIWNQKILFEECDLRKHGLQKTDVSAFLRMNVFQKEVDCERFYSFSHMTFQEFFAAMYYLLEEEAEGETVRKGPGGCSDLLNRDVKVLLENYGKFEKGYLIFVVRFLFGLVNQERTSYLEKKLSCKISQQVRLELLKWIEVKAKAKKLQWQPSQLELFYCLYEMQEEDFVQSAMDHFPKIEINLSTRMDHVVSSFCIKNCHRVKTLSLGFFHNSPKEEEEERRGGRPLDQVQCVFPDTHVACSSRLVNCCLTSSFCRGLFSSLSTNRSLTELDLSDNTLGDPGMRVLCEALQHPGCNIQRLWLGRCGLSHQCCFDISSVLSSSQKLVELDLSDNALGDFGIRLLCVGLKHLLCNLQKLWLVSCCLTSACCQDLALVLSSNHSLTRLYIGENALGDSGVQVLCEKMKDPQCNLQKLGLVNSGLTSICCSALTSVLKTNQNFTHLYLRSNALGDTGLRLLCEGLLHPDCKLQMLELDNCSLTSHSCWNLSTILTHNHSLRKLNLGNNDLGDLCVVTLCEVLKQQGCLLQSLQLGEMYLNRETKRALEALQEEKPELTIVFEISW
Chain of Nlrp3/Pycard (Mus musculus) (Q9EPB4 whole entry, looked up): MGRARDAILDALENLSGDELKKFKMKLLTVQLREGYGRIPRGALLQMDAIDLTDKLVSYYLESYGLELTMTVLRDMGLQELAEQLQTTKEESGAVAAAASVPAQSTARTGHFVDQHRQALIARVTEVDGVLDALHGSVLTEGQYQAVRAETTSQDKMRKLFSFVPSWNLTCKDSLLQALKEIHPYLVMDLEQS

[2] = test system: Mus musculus; experiment: (§1) Antidiabetic activity in HFD-fed STZ-induced diabetic kidney disease male C57BL/6J mouse model assessed as reduction in glomerular thickening in kidney at 20 mg/kg fed with high fat diet for 4 weeks followed by STZ administration for 5 days and measured 6 weeks post compound administration via gavage by histological analysis; assay type: functional, organism-based
[3] = Drug uptake in gastrointestinal tract of male C57BL/6J mouse at 20 mg/kg, po administered as single dose and measured after 8 hrs by LC-MS/MS analysis; assay type: ADME, organism-based; details: in vivo
[4] = test system: Mus musculus; experiment: as §1, with “tubular basement membrane” for “glomerular”; assay type: functional, organism-based
[5] = test system: Mus musculus; experiment: (§2) Anti-colitis activity in DSS-induced acute ulcerative colitis male C57BL/6J mouse model assessed as reduction in depletion of goblet cells in colon at 0.2 to 5 mg/kg, po preadministered with DSS for 7 days followed by 3 days of drinking water and measured after 10 days of compound administration by H and E staining based analysis; assay type: functional, organism-based; details: dose 0.2-5 mg/kg, time 10.0 day
[6] = test system: BMDM; experiment: Inhibition of NLRP3 inflammasome activation at initiation phase in LPS/ATP-stimulated male C57BL/6J mouse BMDM cells assessed as inhibition of IL6 secretion […] for 4 hrs followed by compound administration for 30 mins and measured after 1 hrs of ATP addition by ELISA; assay type: cell-based; details: time 1.5 hrs
[7] = test system: Mus musculus; experiment: as §2, with “infiltration” for “depletion”, “inflammatory” for “goblet”; assay type: functional, organism-based; details: dose 0.2-5 mg/kg, time 10.0 day
[8] = AUClast in male ICR (CD-1) mouse at 5 mg/kg, iv by LC-MS/MS analysis; assay type: ADME, organism-based; details: in vivo
[9] = test system: Mus musculus; experiment: Anti-colitis activity in DSS-induced acute ulcerative colitis male C57BL/6J mouse model assessed as reduction in histologic severity score at 0.2 to 5 mg/kg, po preadministered with DSS for 7 days followed by 3 days of drinking water and measured after 10 days of compound administration; assay type: functional, organism-based; details: dose 0.2-5 mg/kg, time 10.0 day
[10] = Drug uptake in lung of male C57BL/6J mouse at 20 mg/kg, po administered as single dose and measured after 8 hrs by LC-MS/MS analysis; assay type: ADME, organism-based; details: in vivo
[11] = test system: Mus musculus; experiment: as §2, with “disruption” for “depletion”, “mucosal barrier” for “goblet cells”; assay type: functional, organism-based; details: dose 0.2-5 mg/kg, time 10.0 day
[12] = test system: Mus musculus; experiment: Effect on TNF-alpha level in serum of DSS-induced acute ulcerative colitis male C57BL/6J mouse model at 0.2 to 5 mg/kg, po preadministered with DSS for 7 days followed by 3 days of drinking water and measured after 10 days of compound administration by ELISA; assay type: functional, organism-based; details: dose 0.2-5 mg/kg, time 10.0 day
[13] = Cmax in male ICR (CD-1) mouse at 20 mg/kg, po by LC-MS/MS analysis; assay type: ADME, organism-based; details: in vivo
[14] = Cytotoxicity against male C57BL/6J mouse BMDM cells; assay type: functional
[15] = test system: Mus musculus; experiment: Effect on HDL-C level in serum of HFD-fed STZ-induced diabetic kidney disease male C57BL/6J mouse model at 20 mg/kg fed with high fat diet for 4 weeks followed by STZ administration for 5 days and measured 6 weeks post compound administration via gavage; assay type: functional, organism-based
[16] = test system: Mus musculus; experiment: as §2, with “crypt necrosis” for “depletion of goblet cells”; assay type: functional, organism-based; details: dose 0.2-5 mg/kg, time 10.0 day

CN1CCC(N(C)S(=O)(=O)NC(=O)Nc2c3c(cc4c2CCC4)CCC3)CC1
inhibition [1]: Active
Activity [2]: Active
Drug uptake [3]: Active
Activity [4]: Active
Activity [5]: Active
inhibition [6]: inactive
Activity [7]: Active
AUC(0-t) [8]: 14500 ng·h/mL
Activity [9]: Active
Drug uptake [10]: Active
Activity [11]: Active
Activity [12]: inactive
Cmax [13]: 35500 ng/mL
CC50 [14]: > 100 µM
Activity [15]: inactive
Activity [16]: Active
